Experiments:
Type in all cases: in vivo, swine
[1] = test system: gilts; assay: Estrus observation, triptorelin gel dose study (Example 5); conditions: raw average, PTK 2-07
Experimental: (§1) All gilts were individually fed MATRIX® as a top-dress for 14 or 15 days at the recommended rate of 15 mg/gilt/day. Gilts were withdrawn from MATRIX® feeding (last top-dress in the morning on Day 0) and allocated to each of the following treatments. Controls were vehicle gel treated (vehicle gel without triptorelin) at 120 (+/−2) hours following MATRIX® withdrawal (last top dress). The other gilts were given 100, 200 or 400 mcg triptorelin as the acetate in a methylcellulose gel formulation 120 (+/−2) hours following MATRIX® withdrawal. The four treatments were: • 1. Vehicle gel (VG): vehicle gel without triptorelin at 120 (+/−2) hours after MATRIX® withdrawal. • 2. TG 100: 100 mcg (2 mL 50 mcg/mL) triptorelin gel at 120 (+/−2) hours after MATRIX® withdrawal. • 3. TG 200: 200 mcg (2 mL 100 mcg/mL) triptorelin gel at 120 (+/−2) hours after MATRIX® withdrawal. • 4. TG 400: 400 mcg (2 mL 200 mcg/mL) triptorelin gel at 120 (+/−2) hours after MATRIX® withdrawal.
For post-treatment estrus detection, gilts were housed in individual pens. Boars were housed in separate rooms, and/or at least 12 m away and downwind. To elicit signs of estrus, a mature boar was walked slowly in the alley in front of the gilts' crates, exposing each test gilt to visual, auditory and olfactory signals from the boar for up to 5 minutes. […]

[2] = test system: gilts; assay: Ovulation monitoring by transrectal ultrasonography, triptorelin gel dose 100-400 mcg at 120 h post-MATRIX (Example 5); conditions: for % of Sows Ovulating: raw average, PTK 2-07
Experimental: as §1
Ovulation was monitored twice on Day 5 (8 hours and 16 hours post-treatment) and every 8 hours on Day 6 and Day 7 or until ovulation was confirmed or 176 hours following last MATRIX® feeding. The ovulatory status of all gilts was monitored by transrectal ultrasonography. An Aloka 500 ultrasound machine is used for this purpose, with a 7.5 MHz linear array transducer attached to a fixed-angle PVC stabilizing rod to facilitate insertion into the rectum. The transducer and PVC rod are coated with a gynecological lubricant and gently inserted into the rectum until the ovaries can be visualized, one at a time. The diameters of the three largest follicles were recorded (to the nearest 0.1 mm) at each scanning. A gilt was declared to have ovulated when the number of large follicles (≧6.5 mm) fell to less than 3.
(§2) A single 2 mL dose of triptorelin gel or vehicle gel was deposited within approximately 1-2 cm posterior to the cervix with a catheter similar to those used for artificial insemination. The dose was delivered using a standard multi-dose applicator attached to the catheter. A new disposable sheath, which surrounds the catheter, was used for each gilt.

[3] = test system: gilts; assay: Estrus observation after triptorelin gel (Example 1); conditions: raw average, PTK 1-07 (rep 3); 200 mcg T at 120 h post-MATRIX
Experimental: All gilts were individually fed MATRIX® as a top-dress for 14 days at the recommended rate of 15 mg/gilt/day. Gilts were withdrawn from MATRIX® feeding (last top feed in the morning on Day 0) and allotted to treatments. Controls were treated with a 1.2% methylcellulose gel formulation without triptorelin at 96 hours following MATRIX® withdrawal (last top-dress). The remaining gilts received 200 mcg triptorelin, as the acetate, in a 1.2% methylcellulose gel formulation intravaginally at various times after MATRIX® withdrawal. The four treatments were: 1) vehicle gel (VG) treatment at 96 hours after MATRIX® withdrawal, 2) triptorelin gel (TG) treatment at 96 hours after MATRIX® withdrawal, 3) TG treatment at 120 hours after MATRIX® withdrawal and 4) TG treatment at 144 hours after MATRIX® withdrawal. All gilts were monitored for their estrous and ovulatory status as described below. Gilts included in replicate 1 were selected from terminal line commercial production gilts located in grow/finish barns. Sexual maturity, as indicated by one or more estrous periods, was not verified prior to the start of MATRIX® feeding. Gilts included in replicate 2 were selected from a maternal line gilt population. Sexual maturity was verified by at least one estrous period verified and recorded prior to starting MATRIX® feeding. […]
Data were analyzed using the Mixed Models procedures of SAS. […]

[4] = test system: LH; assay: Serum LH surge after triptorelin gel (Example 5)
Experimental: A catheter was inserted non-surgically into the jugular vein (Kraeling et al. 1982) of a subpopulation of gilts in each treatment group (vehicle gel, n=8; 100 mcg triptorelin, n=6; 200 mcg triptorelin, n=7 and 400 mcg triptorelin, n=6). Ten mL blood samples were collected every 15 minutes for one hour prior to treatment, immediately following treatment (0) and at 0.5, 1, 2, 4, 6, 12, 18, 24, 36 and 48 hours after treatment. Blood samples were maintained at 4° C. until centrifuged at 800 x g for 15 minutes within 12 hours of collection. The resulting serum was stored frozen until assayed for LH using validated procedures for pig serum (Kesner et al., 1987 and Kraeling et al., 1982). Onset, duration, and magnitude of the LH surge were analyzed. The LH data were analyzed with the General Linear Models procedure of SAS. Differences between treatments were tested on least squares means estimates using the T test at P<0.05. Onset of the LH surge is when serum LH concentration is greater than or equal to two standard deviations of the mean of the pre-treatment serum LH concentrations. Duration of the LH surge is the period between onset and when serum LH concentration is again less than or equal to two standard deviations of the mean of the pre-treatment serum LH concentrations. Magnitude of the LH surge is the maximum serum LH concentration reached during the LH surge.

[5] = test system: gilts; assay: Ovulation monitoring by transrectal ultrasonography after triptorelin gel at 96, 120 or 144 h post-MATRIX (Example 1); conditions: raw average, PTK 1-07 (rep 3), 200 mcg T at 120 h post-MATRIX
Experimental: All gilts were individually fed MATRIX® as a top-dress for 14 days at the recommended rate of 15 mg/gilt/day. Gilts were withdrawn from MATRIX® feeding (last top feed in the morning on Day 0) and allotted to treatments. Controls were treated with a 1.2% methylcellulose gel formulation without triptorelin at 96 hours following MATRIX® withdrawal (last top-dress). The remaining gilts received 200 mcg triptorelin, as the acetate, in a 1.2% methylcellulose gel formulation intravaginally at various times after MATRIX® withdrawal. The four treatments were: 1) vehicle gel (VG) treatment at 96 hours after MATRIX® withdrawal, 2) triptorelin gel (TG) treatment at 96 hours after MATRIX® withdrawal, 3) TG treatment at 120 hours after MATRIX® withdrawal and 4) TG treatment at 144 hours after MATRIX® withdrawal. All gilts were monitored for their estrous and ovulatory status as described below. Gilts included in replicate 1 were selected from terminal line commercial production gilts located in grow/finish barns. Sexual maturity, as indicated by one or more estrous periods, was not verified prior to the start of MATRIX® feeding. Gilts included in replicate 2 were selected from a maternal line gilt population. Sexual maturity was verified by at least one estrous period verified and recorded prior to starting MATRIX® feeding.
The ovulatory status of all gilts was monitored by transrectal ultrasonography. For replicate one, ovulation was monitored two times on Day 5, then three times a day from Day 6 to Day 8. For replicate two, ovulation was monitored three times a day from Day 5 to Day 8. An Aloka 500 ultrasound machine with a 7.5 MHz linear array transducer attached to a fixed-angle PVC stabilizing rod to facilitate insertion into the rectum was used for this purpose. The transducer and PVC rod were coated with a gynecological lubricant and gently inserted into the rectum until the ovaries were visualized, one at a time. The diameters of the three largest follicles were recorded (to the nearest 0.1 mm) at each scanning. A gilt was declared to have ovulated when the number of large follicles (≧6.5 mm) fell to less than 3.
as §2
Data were analyzed using the Mixed Models procedures of SAS. Models included main effects of time of treatment following the last feeding of MATRIX®, replicate, and treatment by replicate interaction. Differences between treatments were tested on least squares means estimates using the T test at P <0.05. Data for analysis were tested for assumptions of data normality.

[6] = 200 mcg T in gel at 120 h post-MATRIX, relative to time of treatment, one gilt with surge

CC(C)C[C@H](NC(=O)[C@@H](Cc1c[nH]c2ccccc12)NC(=O)[C@H](Cc1ccc(O)cc1)NC(=O)[C@H](CO)NC(=O)[C@H](Cc1c[nH]c2ccccc12)NC(=O)[C@H](Cc1c[nH]cn1)NC(=O)[C@@H]1CCC(=O)N1)C(=O)N[C@@H](CCCNC(=N)N)C(=O)N1CCC[C@H]1C(=O)NCC(N)=O [T, pGlu-His-Trp-Ser-Tyr-D-Trp-Leu-Arg-Pro-Gly-NH2]
Estrous Expression (%) ([1]; 100 mcg T at 120 h post-MATRIX): 75.0% | Estrous Expression (%) ([1]; 200 mcg T at 120 h post-MATRIX): 81.0% | Percentage ovulated by 48 hours ([2]; 100 mcg T in gel at 120 h post-MATRIX, catheterized subpopulation n = 6): 100% | Percentage ovulated by 48 hours ([2]; 200 mcg T in gel at 120 h post-MATRIX, catheterized subpopulation n = 7): 100% | Percentage ovulated by 48 hours ([2]; 400 mcg T in gel at 120 h post-MATRIX, catheterized subpopulation n = 6): 100% | % of Sows Ovulating ([2]; 100 mcg T at 120 h post-MATRIX, 128 h post-MATRIX (8 h post-T)): 0.0% | % of Sows Ovulating ([2]; 100 mcg T at 120 h post-MATRIX, 136 h post-MATRIX (16 h post-T)): 5.0% | % of Sows Ovulating ([2]; 100 mcg T at 120 h post-MATRIX, 144 h post-MATRIX (24 h post-T)): 20.0% | % of Sows Ovulating ([2]; 100 mcg T at 120 h post-MATRIX, 152 h post-MATRIX (32 h post-T)): 30.0% | % of Sows Ovulating ([2]; 100 mcg T at 120 h post-MATRIX, 160 h post-MATRIX (40 h post-T)): 60.0% | % of Sows Ovulating ([2]; 100 mcg T at 120 h post-MATRIX, 168 h post-MATRIX (48 h post-T)): 95.0% | % of Sows Ovulating ([2]; 100 mcg T at 120 h post-MATRIX, 176 h post-MATRIX (56 h post-T)): 100.0% | % of Sows Ovulating ([2]; 200 mcg T at 120 h post-MATRIX, 128 h post-MATRIX (8 h post-T)): 0.0% | % of Sows Ovulating ([2]; 200 mcg T at 120 h post-MATRIX, 136 h post-MATRIX (16 h post-T)): 0.0% | % of Sows Ovulating ([2]; 400 mcg T at 120 h post-MATRIX, 128 h post-MATRIX (8 h post-T)): 4.5% | % of Sows Ovulating ([2]; 400 mcg T at 120 h post-MATRIX, 136 h post-MATRIX (16 h post-T)): 9.1% | % of Sows Ovulating ([2]; 400 mcg T at 120 h post-MATRIX, 168 h post-MATRIX (48 h post-T)): 100.0% | % of Sows Ovulating ([2]; 400 mcg T at 120 h post-MATRIX, 176 h post-MATRIX (56 h post-T)): 100.0% | Estrous Expression (%) [3]: 100.0% | Gilts, which displayed a LH surge ([4]; 100 mcg T in gel at 120 h post-MATRIX, number of n = 6 catheterized gilts): 4 | Onset of LH surge ([4]; 100 mcg T in gel at 120 h post-MATRIX, relative to time of treatment, LS mean ± SE): 4 ± 3 | Gilts, which displayed a LH surge ([4]; 200 mcg T in gel at 120 h post-MATRIX, number of n = 7 catheterized gilts): 1 | Duration of LH surge ([4]; 200 mcg T in gel at 120 h post-MATRIX, one gilt with surge): 18 | Onset of LH surge [4, 6]: 0.5 | Time of maximum LH conc. [4, 6]: 4 h | Gilts, which displayed a LH surge ([4]; 400 mcg T in gel at 120 h post-MATRIX, number of n = 6 catheterized gilts): 5 | Onset of LH surge ([4]; 400 mcg T in gel at 120 h post-MATRIX, relative to time of treatment, LS mean ± SE): 4 ± 4 | % of Sows Ovulating ([5]; 128 h post-MATRIX (8 h post-T)): 0.0% | % of Sows Ovulating ([5]; 136 h post-MATRIX (16 h post-T)): 10.0% | % of Sows Ovulating ([5]; 144 h post-MATRIX (24 h post-T)): 30.0% | % of Sows Ovulating ([5]; 152 h post-MATRIX (32 h post-T)): 70.0% | % of Sows Ovulating ([5]; 160 h post-MATRIX (40 h post-T)): 80.0% | % of Sows Ovulating ([5]; 168 h post-MATRIX (48 h post-T)): 90.0% | % of Sows Ovulating ([5]; 176 h post-MATRIX (56 h post-T)): 100.0%
